Laboratory results published in the supplement of paper PMC10307832.

Experiments:
Assay in all cases: relative viability (nuclei count vs DMSO), 5 days (fraction); higher = more cells survive
Bortezomib + Phenformin = compound: CC(C)C[C@H](NC(=O)[C@H](Cc1ccccc1)NC(=O)c1cnccn1)B(O)O [Bortezomib] + N=C(N)NC(=N)NCCc1ccccc1 [Phenformin] (partner 250 µM)
Outline: (§1)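 The day after seeding in 1536-well plates, lung cancer cell lines were treated by pin tool with a single drug, or with a fixed anchor-drug dose together with five library-drug doses (not always all listed) in √10 steps. After 5 days, a combined fix-and-stain solution (final 0.05% Triton X-100, 1% formaldehyde, 1 ug/ml Hoechst) was added. Nuclei counted on 4× images gave relative viability as treated counts over vehicle counts, reported as the median of duplicate plates.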

Obatoclax + Palbociclib = compound: COC1=CC(c2cc3ccccc3[nH]2)=N/C1=C\c1[nH]c(C)cc1C [Obatoclax] + CC(=O)c1c(C)c2cnc(Nc3ccc(N4CCNCC4)cn3)nc2n(C2CCCC2)c1=O [Palbociclib] (partner 0.5 µM)
Outline: as §1

[1] = compound: CC1=CC(=NN1)NC2=CC(=NC(=N2)/C=C/C3=CC=CC=C3)N4CCN(CC4)C + CC(C)C[C@H](NC(=O)[C@H](Cc1ccccc1)NC(=O)c1cnccn1)B(O)O [Bortezomib] (partner 0.002 µM)
Outline: as §1

Obatoclax + Crizotinib = compound: COC1=CC(c2cc3ccccc3[nH]2)=N/C1=C\c1[nH]c(C)cc1C [Obatoclax] + C[C@@H](Oc1cc(-c2cnn(C3CCNCC3)c2)cnc1N)c1c(Cl)ccc(F)c1Cl [Crizotinib] (partner 1 µM)
Outline: as §1

| Cell Line | relative viability (Bortezomib + Phenformin; first compound 0.0002 µM) | relative viability (Bortezomib + Phenformin; first compound 0.000632 µM) | relative viability (Bortezomib + Phenformin; first compound 0.002 µM) | relative viability (Bortezomib + Phenformin; first compound 0.006325 µM) | relative viability (Bortezomib + Phenformin; first compound 0.02 µM) | relative viability (Obatoclax + Palbociclib; first compound 0.01 µM) | relative viability (Obatoclax + Palbociclib; first compound 0.03162 µM) | relative viability (Obatoclax + Palbociclib; first compound 0.1 µM) | relative viability (Obatoclax + Palbociclib; first compound 0.3162 µM) | relative viability (Obatoclax + Palbociclib; first compound 1 µM) | relative viability ([1]; first compound 0.08 µM) | relative viability ([1]; first compound 0.253 µM) | relative viability ([1]; first compound 0.8 µM) | relative viability ([1]; first compound 2.53 µM) | relative viability ([1]; first compound 8 µM) | relative viability (Obatoclax + Crizotinib; first compound 0.01 µM) | relative viability (Obatoclax + Crizotinib; first compound 0.03162 µM) | relative viability (Obatoclax + Crizotinib; first compound 0.1 µM) | relative viability (Obatoclax + Crizotinib; first compound 0.3162 µM) | relative viability (Obatoclax + Crizotinib; first compound 1 µM) |
| --- | --- | --- | --- | --- | --- | --- | --- | --- | --- | --- | --- | --- | --- | --- | --- | --- | --- | --- | --- | --- |
| NCI-H838 | 0.6 | 0.526 | 0.64 | 0.127 | 0.115 | 0.223 | 0.219 | 0.19 | 0.195 | 0.146 | 0.759 | 0.802 | 0.705 | 0.168 | 0.0832 | 0.848 | 0.959 | 0.827 | 0.77 | 0.777 |
| NCI-H520 | 0.599 | 0.669 | 0.422 | 0.213 | 0.17 | 0.287 | 0.23 | 0.331 | 0.187 | 0.151 | 0.487 | 0.599 | 0.395 | 0.154 | 0.11 | 0.781 | 0.777 | 0.774 | 0.628 | 0.461 |
| NCI-H2347 | 0.493 | 0.512 | 0.594 | 0.298 | 0.257 | 0.388 | 0.406 | 0.393 | 0.489 | 0.413 | 0.829 | 1.21 | 1.04 | 1.32 | 0.461 | 0.738 | 0.671 | 0.556 | 0.742 | 0.382 |
| NCI-H441 | 0.969 | 0.732 | 0.514 | 0.166 | 0.189 | 0.231 | 0.214 | 0.261 | 0.167 | 0.155 | 0.543 | 0.547 | 0.332 | 0.265 | 0.192 | 0.676 | 0.742 | 0.724 | 0.604 | 0.549 |
| NCI-H2405 | 0.513 | 0.319 | 0.393 | 0.241 | 0.109 | 0.578 | 0.545 |  | 0.541 | 0.434 | 0.963 | 0.819 | 1.02 | 0.865 | 0.958 | 0.821 | 0.832 |  | 0.826 | 0.867 |
| HCC-15 | 0.44 | 0.448 | 0.458 | 0.0952 | 0.0863 | 0.672 | 0.728 | 0.695 | 0.752 | 0.609 | 0.981 | 0.961 | 1 | 0.377 | 0.235 | 0.768 | 0.821 | 0.741 | 0.776 | 0.689 |
